The text below walks through data of PMC10498496, “Design and Synthesis of Poly(2,2′-Bipyridyl) Ligands for Induction of Cell Death in Cancer Cells: Control of Anticancer Activity by Complexation/Decomplexation with Biorelevant Metal Cations” (Inorganic Chemistry, 2023).

Like-named read-outs stand apart in the source and are kept apart here. Marks after values point to notes of the source that are not given here. Bounds are passed on as bounds.

Data set [1] can be described thus: UV/vis absorption titration, apparent stability constant with Ni^2+. Format: binding. As to conditions: 37 °C, 1:1 complex. How it is done:
(§1) All reagents and solvents were purchased at the highest commercial quality and were used without further purification. Anhydrous DMF was obtained by distillation from calcium hydride. All aqueous solutions were prepared using deionized and distilled water. Melting points were measured using a Yanaco MP-J3 Micro Melting Point apparatus and are uncorrected. UV/vis absorption spectra were recorded on a JASCO V-630 spectrophotometer at 37 °C. The UV/vis absorption titrations of 1 with metal ions were carried out by addition of 10 mM solutions of Zn(NO3)2, NiSO4, Co(NO3)2, Fe(NO3)2, and Al(NO3)3 in H2O and 10 mM solutions of Cu(NO3)2 in DMSO. The apparent stability constants of metal–ligand complexes (Ks) were calculated by using the Bind Works 1.0 software provided by CSC (Calorimetry Science Corp.), an interactive PC software for the analysis of Binding Isotherms on Isothermal Titration Calorimeters (ITCs), to which the change in absorption values obtained by the UV/vis absorption titrations are input.[62] IR spectra were measured with a PerkinElmer FT-IR spectrophotometer (Spectrum 100) at room temperature. ^1H (300 and 400 MHz) NMR spectra were recorded on a JEOL Always 300 spectrometer and a JEOL Always 400 spectrometer, respectively. Luminescence imaging studies were performed using a fluorescent microscope (Biorevo, BZ-9000, Keyence). […]

The nature of data set [2]: UV/vis absorption titration, apparent stability constant with Fe^2+. The class given is binding. As to conditions: ligand 30 μM, DMSO/30 mM HEPES pH 7.4 (7/3), 37 °C, approximate, assuming 1:1 complexation (1:2 complex).
Description: (§2) Although simple comparison of the stability of metal complexes is difficult due to the different units for 1:1 complexation (M^–1) and 1:2 complexation (M^–2), it is likely that the thermodynamic stability of Co^2+-(1)2 and Fe^2+-(1)2 complexes are similar to that of Zn^2+-1, Ni^2+-1, and Cu^2+-1 complexes.[40]
as §1, with “The UV/vis absorption titrations of 1 with metal ions were carried out by addition of 10 mM solutions of Zn(NO3)2, NiSO4, Co(NO3)2, Fe(NO3)2, and Al(NO3)3 in H2O and 10 mM solutions of Cu(NO3)2 in DMSO.” left out, “respectively.” for “respectively. Luminescence imaging studies were performed using a fluorescent microscope (Biorevo, BZ-9000, Keyence).”

Data set [3] can be described thus: UV/vis absorption titration, apparent stability constant with Al^3+. The class given is binding. As to conditions: ligand 30 μM, DMSO/30 mM HEPES pH 7.4, I = 0.1 (NaNO3) (7/3), 37 °C.
Description: as §2
as §1, with “The UV/vis absorption titrations of 1 with metal ions were carried out by addition of 10 mM solutions of Zn(NO3)2, NiSO4, Co(NO3)2, Fe(NO3)2, and Al(NO3)3 in H2O and 10 mM solutions of Cu(NO3)2 in DMSO.” left out, “respectively.” for “respectively. Luminescence imaging studies were performed using a fluorescent microscope (Biorevo, BZ-9000, Keyence).”

Data set [4] relates to Jurkat cells. Briefly: MTT assay of Jurkat cells, effect of metal ions and incubation time on cytotoxicity of ligands. The class given is cell-based, human. As to conditions: Homo sapiens, Jurkat, no metal. The procedure: Next, we examined the effect of complexation of 1, 2, BAPTA, and BAPTA-AM with metal ions such as Cu(NO3)2, Zn(NO3)2, FeSO4, Co(NO3)2, and NiSO4 on their cytotoxicity against Jurkat cells. Mixture of ligands and metal ions were incubated for 1 h at 37 °C, and added to Jurkat cells for incubation for 12, 24, and 48 h at [ligand] = 0.78–25 μM and [M^2+] = 1.71–37.5 μM ([ligand]: [M^2+] = 1:1.5). After that, MTT assays were carried out, as shown in Figure S3 of the Supporting Information.
IMR-90 cells in DMEM medium with 10% FBS (1.5 × 10^5 cells/mL) were seeded in to 96 well plates and incubated for 24 h at 37 °C, MTT assays with poly(bpy) ligands and their metal complexes (0–100 μM), cisplatin (0–100 μM), and actinomycin D (0–10 μM) were performed following the same procedure described above. These experiments were carried out at least three times. • (b) MTT assay in the presence of a caspase inhibitor. Jurkat cells were pre-treated with Z-VAD-fmk (15 μM) for 3 h, a general caspases inhibitor, followed by the treatment with 1 (1 μM), BABTA-AM (12.5 μM) and cisplatin (50 μM), respectively, for 24 h, and then MTT assay was carried out as described above. • (c) For evaluation of the effect of metal ions on the cytotoxicity of 1, 2, BAPTA, and BAPTA-AM, these ligands were incubated with metal ions such as Cu(NO3)2, Zn(NO3)2, FeSO4, Co(NO3)2, and NiSO4 for 1 h, respectively, and added to Jurkat cells. The whole mixtures were incubated for 12, 24, and 48 h at [ligand] = 0.78–25 μM and at [M^2+] = 1.71–37.5 μM ([ligand]/[M^2+] = 1:1.5). The MTT assays were conducted as described above.
On the technique in general: Formazan colour is commonly taken as a measure of viable cells.

Data set [5] is described as follows: UV/vis absorption titration, apparent stability constant with Cu^2+. As to conditions: ligand 30 μM, DMSO/30 mM HEPES pH 7.4, I = 0.1 (NaNO3) (7/3), 37 °C, 1:1 complex. The class given is binding. How it is done:
as §1

One may read the EC50 as the midpoint of the concentration-response curve. In the case of `c1ccc(-c2ccc(OCc3cc(COc4ccc(-c5ccccn5)nc4)cc(COc4ccc(-c5ccccn5)nc4)c3)cn2)nc1` [compound 1, 1,3,5-Tris(([2,2′-Bipyridin]-5-yloxy)methyl)benzene], the Kd in data set [1] (DMSO/30 mM HEPES pH 7.4 (7/3), read-out: dissociation constant Kd (= 1/Ks) of Ni^2+ complex) stood at 610 ± 20 nM. Further, the “apparent stability constant log Ks with NiSO4” value in data set [1] (ligand 30 μM, DMSO/30 mM HEPES pH 7.4, I = 0.1 (NaNO3) (7/3)) is reported as 6.21 ± 0.01 (1:1 complex). For the same molecule, the “apparent stability constant log Ks with Fe(NO3)2” value in data set [2] is on record as >5.5 ^b (1:2 complex). Also, the “apparent stability constant log Ks with Al(NO3)3” value in data set [3] was below 1. Moreover, the 50% effective concentration (EC50) is around 9000 nM in data set [4] (incubation 12 h (Figure 9), read-out: EC50 against Jurkat cells, metal-free ligand); 137 nM in data set [4] (incubation 24 h (Figure 9b), read-out: EC50 against Jurkat cells, ligand alone); around 60 nM in data set [4] (incubation 48 h (Figure 9, S4), read-out: EC50 against Jurkat cells, metal-free ligand). Further, the “apparent stability constant log Ks with Cu(NO3)2” value in data set [5] was 7.29 ± 0.02 (1:1 complex).
